# Assay results from ChEMBL document CHEMBL4819093, “Discovery of 1-[2-(1-methyl-1H-pyrazol-5-yl)-[1,2,4]triazolo[1,5-a]pyridin-6-yl]-3-(pyridin-4-ylmethyl)urea as a potent NAMPT (nicotinamide phosphoribosyltransferase) activator with attenuated CYP inhibition” (Bioorg Med Chem Lett, 2021).
# Columns and labels:
# [1] = 1-Octanol/PBS buffer distribution coefficient, log D of the compound at pH 7.4
# [2] = Permeability of the compound at pH 5 by PAMPA
# [3] = Permeability of the compound at pH 7.4 by PAMPA
# [4] = Metabolic stability in human microsome assessed as parent compound remaining at 1 uM measured after 30 mins; settings: microsomes
# [5] = Metabolic stability in mouse microsome fraction assessed as parent compound remaining at 1 uM measured after 30 mins; settings: microsomes
# CYP1A2 = target: T1, CYP1A2 (Homo sapiens, UniProt P05177); assay: Inhibition of CYP1A2 (unknown origin) at 10 uM measured after 10 mins; assay type: ADME
# T1 sequence (P05177 whole entry): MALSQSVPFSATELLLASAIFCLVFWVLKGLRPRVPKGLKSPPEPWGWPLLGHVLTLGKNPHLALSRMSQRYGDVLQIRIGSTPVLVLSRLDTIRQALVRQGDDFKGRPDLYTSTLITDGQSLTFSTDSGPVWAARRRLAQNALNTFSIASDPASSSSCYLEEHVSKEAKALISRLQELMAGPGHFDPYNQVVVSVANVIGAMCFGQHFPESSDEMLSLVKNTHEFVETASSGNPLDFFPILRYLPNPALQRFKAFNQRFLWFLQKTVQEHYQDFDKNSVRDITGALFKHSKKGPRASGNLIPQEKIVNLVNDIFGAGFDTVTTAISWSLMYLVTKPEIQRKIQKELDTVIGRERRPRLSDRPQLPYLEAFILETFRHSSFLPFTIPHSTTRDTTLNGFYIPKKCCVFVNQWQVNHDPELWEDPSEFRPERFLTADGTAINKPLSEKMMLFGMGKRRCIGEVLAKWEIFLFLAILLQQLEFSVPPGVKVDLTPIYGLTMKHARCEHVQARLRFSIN
# CYP2C9 = CYP2C9 (Homo sapiens, UniProt P11712); assay: Inhibition of CYP2C9 (unknown origin) at 10 uM measured after 10 mins; assay type: ADME
# CYP2D6 = CYP2D6 (Homo sapiens, UniProt P10635); assay: Inhibition of CYP2D6 (unknown origin) at 10 uM measured after 10 mins; assay type: ADME
# CYP3A4 = CYP3A4 (Homo sapiens, UniProt P08684); assay: Inhibition of CYP3A4 (unknown origin) at 10 uM measured after 10 mins; assay type: ADME
# [6] = target: T2, Nicotinamide phosphoribosyltransferase (Homo sapiens, UniProt P43490); assay: Inhibition of human NAMPT assessed as decrease in NMN production by fluorescence based analysis
# [7] = target: T2, Nicotinamide phosphoribosyltransferase; assay: Activation of human NAMPT assessed as increase in NMN production by fluorescence based analysis
# [8] = Solubility of the compound at pH 1.2; settings: buffer
# [9] = Solubility of the compound at pH 6.8; settings: buffer
# hERG (KCNH2) [10] = target: T3, hERG (KCNH2) (Homo sapiens, UniProt Q12809); assay: Inhibition of human ERG at 3 uM
# hERG (KCNH2) [11] = target: T3, hERG (KCNH2); assay: Inhibition of human ERG at 10 uM
# hERG (KCNH2) [12] = target: T3, hERG (KCNH2); assay: Inhibition of human ERG at 30 uM
# [13] = Half life in C57BL/6N mouse at 10 mg/kg, po; settings: in vivo
# in vivo [14] = settings: C57BL/6N, mouse, po, 10 mg/kg
# in vivo [15] = settings: C57BL/6N, mouse, po, 10 mg/kg; remark: listed apart in the source
# T3 sequence (Q12809 whole entry): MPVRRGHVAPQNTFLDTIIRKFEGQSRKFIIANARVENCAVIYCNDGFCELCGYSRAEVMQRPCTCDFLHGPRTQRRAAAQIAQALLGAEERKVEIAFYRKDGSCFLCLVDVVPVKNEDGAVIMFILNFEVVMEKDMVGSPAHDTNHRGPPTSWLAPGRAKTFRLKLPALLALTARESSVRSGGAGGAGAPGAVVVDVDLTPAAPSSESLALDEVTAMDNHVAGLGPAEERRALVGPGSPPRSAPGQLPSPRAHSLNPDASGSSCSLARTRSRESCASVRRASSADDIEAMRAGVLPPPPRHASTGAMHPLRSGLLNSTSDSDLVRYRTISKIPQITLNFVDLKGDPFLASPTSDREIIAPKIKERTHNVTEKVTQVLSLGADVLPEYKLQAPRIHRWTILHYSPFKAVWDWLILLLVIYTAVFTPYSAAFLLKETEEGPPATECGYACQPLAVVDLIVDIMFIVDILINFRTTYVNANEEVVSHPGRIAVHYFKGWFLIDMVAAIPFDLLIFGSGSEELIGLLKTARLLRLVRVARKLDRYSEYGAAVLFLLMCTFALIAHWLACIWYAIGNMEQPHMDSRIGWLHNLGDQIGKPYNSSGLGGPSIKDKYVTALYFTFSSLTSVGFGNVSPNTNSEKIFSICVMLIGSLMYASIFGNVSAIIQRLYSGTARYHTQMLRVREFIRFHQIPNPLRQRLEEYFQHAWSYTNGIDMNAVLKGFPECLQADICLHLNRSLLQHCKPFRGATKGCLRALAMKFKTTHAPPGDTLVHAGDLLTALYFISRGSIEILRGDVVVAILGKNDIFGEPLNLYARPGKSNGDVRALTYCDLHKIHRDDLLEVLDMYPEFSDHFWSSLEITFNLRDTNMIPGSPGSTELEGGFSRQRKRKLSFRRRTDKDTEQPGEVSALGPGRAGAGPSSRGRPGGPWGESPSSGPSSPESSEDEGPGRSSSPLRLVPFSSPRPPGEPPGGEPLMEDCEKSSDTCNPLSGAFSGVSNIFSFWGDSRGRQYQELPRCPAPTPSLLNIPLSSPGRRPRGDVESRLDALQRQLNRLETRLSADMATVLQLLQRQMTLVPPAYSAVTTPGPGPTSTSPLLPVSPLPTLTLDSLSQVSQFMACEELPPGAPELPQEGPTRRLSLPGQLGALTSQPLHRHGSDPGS
# Chain of CYP3A4 (P08684 whole entry): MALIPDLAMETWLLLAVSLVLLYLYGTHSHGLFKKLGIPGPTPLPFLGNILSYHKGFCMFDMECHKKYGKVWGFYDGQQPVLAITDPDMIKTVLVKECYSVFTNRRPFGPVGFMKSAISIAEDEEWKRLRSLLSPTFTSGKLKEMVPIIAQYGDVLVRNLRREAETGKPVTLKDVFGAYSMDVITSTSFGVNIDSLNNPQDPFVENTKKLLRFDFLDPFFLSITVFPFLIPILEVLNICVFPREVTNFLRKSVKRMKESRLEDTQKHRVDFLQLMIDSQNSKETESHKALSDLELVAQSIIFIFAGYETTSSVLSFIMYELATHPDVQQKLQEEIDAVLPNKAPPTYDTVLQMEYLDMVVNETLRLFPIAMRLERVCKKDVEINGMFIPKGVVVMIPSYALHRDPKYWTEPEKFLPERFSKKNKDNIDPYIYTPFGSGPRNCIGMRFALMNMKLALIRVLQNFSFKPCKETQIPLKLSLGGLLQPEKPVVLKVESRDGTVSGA
# T2 sequence (P43490 whole entry): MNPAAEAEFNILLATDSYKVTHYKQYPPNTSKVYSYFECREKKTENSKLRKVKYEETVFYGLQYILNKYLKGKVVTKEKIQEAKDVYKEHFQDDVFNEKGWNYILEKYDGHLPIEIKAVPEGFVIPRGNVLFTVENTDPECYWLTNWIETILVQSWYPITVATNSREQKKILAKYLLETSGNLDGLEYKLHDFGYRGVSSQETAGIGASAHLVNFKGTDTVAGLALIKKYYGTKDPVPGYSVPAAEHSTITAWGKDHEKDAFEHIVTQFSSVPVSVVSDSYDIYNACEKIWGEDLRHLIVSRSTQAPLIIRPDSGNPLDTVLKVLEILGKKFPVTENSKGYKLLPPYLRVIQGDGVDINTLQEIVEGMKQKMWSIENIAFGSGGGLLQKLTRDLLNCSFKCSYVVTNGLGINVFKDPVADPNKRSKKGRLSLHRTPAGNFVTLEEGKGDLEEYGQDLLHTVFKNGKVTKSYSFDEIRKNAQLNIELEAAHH
# Chain of CYP2D6 (P10635 whole entry): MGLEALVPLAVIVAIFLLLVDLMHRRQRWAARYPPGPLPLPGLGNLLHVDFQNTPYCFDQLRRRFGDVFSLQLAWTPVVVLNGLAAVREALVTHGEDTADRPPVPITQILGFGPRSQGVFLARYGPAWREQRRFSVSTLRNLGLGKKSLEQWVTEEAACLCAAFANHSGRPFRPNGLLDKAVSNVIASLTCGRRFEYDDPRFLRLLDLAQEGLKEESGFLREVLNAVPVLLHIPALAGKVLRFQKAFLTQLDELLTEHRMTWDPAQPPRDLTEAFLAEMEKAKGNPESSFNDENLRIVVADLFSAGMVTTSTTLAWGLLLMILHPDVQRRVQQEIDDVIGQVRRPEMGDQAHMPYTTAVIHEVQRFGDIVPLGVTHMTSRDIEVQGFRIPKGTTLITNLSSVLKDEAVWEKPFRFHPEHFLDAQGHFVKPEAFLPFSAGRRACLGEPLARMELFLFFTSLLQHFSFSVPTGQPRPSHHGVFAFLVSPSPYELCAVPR
# Chain of CYP2C9 (P11712 whole entry): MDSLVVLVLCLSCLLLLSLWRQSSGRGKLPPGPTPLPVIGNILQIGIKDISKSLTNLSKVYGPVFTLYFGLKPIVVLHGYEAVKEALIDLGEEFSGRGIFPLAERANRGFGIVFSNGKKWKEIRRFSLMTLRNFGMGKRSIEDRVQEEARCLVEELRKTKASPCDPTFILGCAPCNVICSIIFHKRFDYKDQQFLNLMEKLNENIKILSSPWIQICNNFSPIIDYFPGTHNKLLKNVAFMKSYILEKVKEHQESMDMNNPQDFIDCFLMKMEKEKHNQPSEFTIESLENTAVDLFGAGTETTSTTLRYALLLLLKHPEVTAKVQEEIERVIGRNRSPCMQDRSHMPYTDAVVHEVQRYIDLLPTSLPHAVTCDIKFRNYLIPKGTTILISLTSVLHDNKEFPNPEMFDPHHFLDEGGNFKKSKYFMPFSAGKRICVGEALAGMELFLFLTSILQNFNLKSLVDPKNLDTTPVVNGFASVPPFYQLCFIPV
"inhibition at 10 min, 10 µM (CYP1A2) [%]","inhibition at 10 min, 10 µM (CYP2C9) [%]","inhibition at 10 min, 10 µM (CYP2D6) [%]","inhibition at 10 min, 10 µM (CYP3A4) [%]",EC50 [7] [µM],SMILES,also measured
88,74,50,75,–,O=C(NCc1ccncc1)Nc1ccc2cn(-c3ccccc3)nc2c1,"logD [1]: 3.2; Papp [2]: 4.6 ×10⁻⁶ cm/s; Papp [3]: > 5 ×10⁻⁶ cm/s; remaining at 0.5 h, 1 µM [4]: 87%; remaining at 0.5 h, 1 µM [5]: 83%"
–,–,–,–,–,Cc1ccc(C(=O)N2CCc3cc(NC(=O)NCc4cccnc4)ccc32)cc1,IC50 [6]: 0.032 µM
81,78,70,53,–,O=C(NCc1ccncc1)Nc1ccc2cc(-c3ccccc3)nn2c1,–
69,59,13,0,–,O=C(NCc1cnco1)Nc1ccc2nc(-c3ccccc3)nn2c1,–
43,78,50,65,–,O=C(NCc1ccncc1)Nc1ccc2nc(-c3ccccc3OC(F)(F)F)nn2c1,–
8,81,24,0,> 100,O=C(NCc1ccncc1)Nc1ccc2nc(-c3ccc(OC(F)(F)F)cc3)nn2c1,logD [1]: 4.4
63,79,21,37,0.083,O=C(NCc1ccncc1)Nc1ccc2nc(-c3ccccc3)nn2c1,"logD [1]: 3; Papp [2]: 1.42 ×10⁻⁶ cm/s; Papp [3]: 2.76 ×10⁻⁶ cm/s; solubility [8]: > 680 µg/mL; solubility [9]: 92 µg/mL; remaining at 0.5 h, 1 µM [4]: 95%; remaining at 0.5 h, 1 µM [5]: 86%; inhibition at 3 µM (hERG (KCNH2) [10]): 20%; inhibition at 10 µM (hERG (KCNH2) [11]): 51%; inhibition at 30 µM (hERG (KCNH2) [12]): 69%; half-life [13]: 54 min; Cmax (in vivo [14]): 9.2 µM; AUC(0-t) at 24 h (in vivo [15]): 25 µM·h"
12,79,17,4,–,CC(C)n1nccc1-c1nc2ccc(NC(=O)NCc3ccncc3)cn2n1,–
–,–,–,–,0.48,Cc1ccc(C(=O)N2CCc3cc(NC(=O)NCc4ccncc4)ccc32)cc1,–
15,42,16,25,–,Cn1nccc1-c1nc2ccc(NC(=O)NCc3ccncc3)cn2n1,inhibition at 3 µM (hERG (KCNH2) [10]): 11%; inhibition at 10 µM (hERG (KCNH2) [11]): 14%; inhibition at 30 µM (hERG (KCNH2) [12]): 25%
51,75,27,40,0.12,Cn1cccc1-c1nc2ccc(NC(=O)NCc3ccncc3)cn2n1,logD [1]: 2.6
28,90,36,0,–,O=C(NCc1ccncc1)Nc1ccc2nc(-c3cccc(OC(F)(F)F)c3)nn2c1,–
6,44,13,18,–,COCCn1nccc1-c1nc2ccc(NC(=O)NCc3ccncc3)cn2n1,–
86,59,23,0,–,O=C(NCc1cn[nH]c1)Nc1ccc2nc(-c3ccccc3)nn2c1,–
–,–,–,–,5.8,CC(C)c1nc2ccc(NC(=O)NCc3ccncc3)cn2n1,–
